The values below come from ChEMBL document CHEMBL1134742, “Synthesis and structure-activity relationships of thiotetronic acid analogues of thiolactomycin” (2001).

In brackets after ≈: the same amount, converted by molar mass.

One assay has as its system Staphylococcus aureus. The experiment in a line: Antibacterial activity against Staphylococcus aureus. In kind it is functional.
The test system of the next assay is Pasteurella multocida. The assay can be described thus: Antibacterial activity against Pasteurella multocida. The class given is functional.

In general, MIC refers to the lowest concentration that inhibits growth of the organism. In the case of `CCOC(=O)/C=C/C(C)=C/[C@@]1(C)SC(O)=C(C)C1=O`, the MIC against Staphylococcus aureus and against Pasteurella multocida was over 100 µg/mL throughout.

Take `CC(=O)C1=C(O)C(C)(Cc2ccc(F)cc2)SC1=O` (stereo not given): the minimum inhibitory concentration (MIC) against Staphylococcus aureus and with Pasteurella multocida was over 200 µg/mL throughout.

For the molecule `CCOC(=O)/C=C/C=C/C(C)=C/[C@@]1(C)SC(O)=C(C)C1=O`, the MIC in the assay on Staphylococcus aureus and in the assay on Pasteurella multocida was over 100 µg/mL in each case.

For the molecule `CCCCCC(=O)/C=C/C(C)=C/[C@@]1(C)SC(O)=C(C)C1=O`, the MIC against Staphylococcus aureus and against Pasteurella multocida was over 100 µg/mL in each case.

With `CC(=O)C1=C(O)SC(C)(C/C=C(/C)CCC=C(C)C)C1=O` (stereo not given), the MIC in the assay on Staphylococcus aureus is over 200 µg/mL; against Pasteurella multocida, 100 µg/mL (≈ 324 µM).

With `CC(=O)C1=C(O)S/C(=C\c2cccc(F)c2)C1=O`, the MIC in the assay with Staphylococcus aureus came to 50 µg/mL (≈ 189 µM); in the assay on Pasteurella multocida, 6.25 µg/mL (≈ 23.6 µM).

Turning to `CC(=O)C1=C(O)S/C(=C\c2ccccn2)C1=O`, the figures for the MIC against Staphylococcus aureus and in the assay with Pasteurella multocida were over 200 µg/mL and 100 µg/mL (≈ 404 µM), respectively.

As for `CC(=O)C1=C(O)SC(COC(=O)Cc2ccccc2)C1=O` (stereo not given), the MIC was 3.13 µg/mL (≈ 10.2 µM) with Staphylococcus aureus and over 200 µg/mL against Pasteurella multocida.

In the case of `CC(=O)C1=C(O)S/C(=C\c2ccc(Cl)cc2Cl)C1=O`, the minimal inhibitory concentration (MIC) in the assay with Staphylococcus aureus and against Pasteurella multocida was 3.13 µg/mL (≈ 9.93 µM) in each case.

Consider `CC(=O)C1=C(O)SC(C/C=C(\C)CC/C=C(\C)CCC=C(C)C)C1=O` (stereo not given), for which the MIC came out at 1.56 µg/mL (≈ 4.3 µM) in the assay on Staphylococcus aureus and 0.2 µg/mL (≈ 0.552 µM) in the assay with Pasteurella multocida.

Consider `CC(=O)OC1=C(C)C(=O)S[C@]1(C)/C=C(\C)C=O`, for which the MIC with Staphylococcus aureus and against Pasteurella multocida was over 100 µg/mL in each case.

Consider `CC1=C(O)S[C@](C)(/C=C(C)/C=C/c2ccccc2)C1=O`, for which the minimal inhibitory concentration (MIC) against Staphylococcus aureus and against Pasteurella multocida was over 100 µg/mL each time.

Take `C=C/C(C)=C/[C@@]1(C)SC(=O)C(C)=C1OC(C)=O`: the MIC against Staphylococcus aureus and in the assay on Pasteurella multocida was over 100 µg/mL each time.

With `CC(=O)C1=C(O)S/C(=C\c2ccc(O)cc2)C1=O`, the minimum inhibitory concentration (MIC) against Staphylococcus aureus and against Pasteurella multocida was over 200 µg/mL in each case.

Take `CC(=O)C1=C(O)SC(C)C1=O` (stereo not given): the MIC is 50 µg/mL (≈ 290 µM) in the assay on Staphylococcus aureus and 6.25 µg/mL (≈ 36.3 µM) with Pasteurella multocida.

Take `CC(=O)C1=C(O)S/C(=C\c2ccccc2)C1=O`: the MIC in the assay with Staphylococcus aureus and with Pasteurella multocida was over 200 µg/mL throughout.

For `CC(=O)C1=C(O)S/C(=C\c2ccc(F)cc2)C1=O`, the values for the minimal inhibitory concentration (MIC) against Staphylococcus aureus and with Pasteurella multocida were over 200 µg/mL and 3.13 µg/mL (≈ 11.8 µM), respectively.

In the case of `CC1=C(O)S[C@](C)(/C=C(\C)C=C(Br)Br)C1=O`, the MIC in the assay with Staphylococcus aureus and with Pasteurella multocida was over 100 µg/mL throughout.

With `CC(=O)C1=C(O)SC(C/C=C(/C)CC/C=C(\C)CCC=C(C)C)(C/C=C(/C)CC/C=C(\C)CCC=C(C)C)C1=O`, the MIC with Staphylococcus aureus and with Pasteurella multocida was over 200 µg/mL in each case.

In the case of `CC(=O)C1=C(O)S/C(=C\c2cccs2)C1=O`, the MIC was over 200 µg/mL in the assay on Staphylococcus aureus and 1.56 µg/mL (≈ 6.18 µM) with Pasteurella multocida.

Consider `C=C/C(C)=C\[C@@]1(C)SC(O)=C(C)C1=O`, for which the MIC in the assay with Staphylococcus aureus was over 100 µg/mL; against Pasteurella multocida, 0.2 µg/mL (≈ 0.951 µM).

Regarding `CC1=C(O)S[C@](C)(/C=C(\C)C#N)C1=O`, the MIC in the assay on Staphylococcus aureus and in the assay on Pasteurella multocida was over 100 µg/mL each time.

Take `CC(=O)/C=C/C(C)=C/[C@@]1(C)SC(O)=C(C)C1=O`: the MIC against Staphylococcus aureus and against Pasteurella multocida was over 100 µg/mL each time.

On to `CC(=O)C1=C(O)S/C(=C\c2ccc3c(c2)OCO3)C1=O`, for which the MIC against Staphylococcus aureus and against Pasteurella multocida was over 200 µg/mL each time.

For `CC(=O)C1=C(O)SCC1=O`, the MIC with Staphylococcus aureus and with Pasteurella multocida was over 200 µg/mL throughout.

For the molecule `CCCNC/C(C)=C/[C@@]1(C)SC(O)=C(C)C1=O`, the MIC in the assay on Staphylococcus aureus and against Pasteurella multocida was over 100 µg/mL each time.

As to `CC(=O)C1=C(O)S/C(=C\c2cccc(Oc3cccc(C(F)(F)F)c3)c2)C1=O`, the minimal inhibitory concentration (MIC) turned out to be 0.78 µg/mL (≈ 1.92 µM) with Staphylococcus aureus and 3.13 µg/mL (≈ 7.7 µM) with Pasteurella multocida.

For `CC(=O)C1=C(O)S/C(=C\N(C)C)C1=O`, the MIC in the assay on Staphylococcus aureus and with Pasteurella multocida was over 200 µg/mL throughout.

In the case of `CC(=O)C1=C(O)S/C(=C\c2cccc(OCc3ccccc3)c2)C1=O`, the minimal inhibitory concentration (MIC) was 3.13 µg/mL (≈ 8.88 µM) in the assay on Staphylococcus aureus and over 200 µg/mL against Pasteurella multocida.

For the molecule `CC1=C(O)S[C@](C)(/C=C(C)/C=N/OCc2ccccc2)C1=O`, the MIC with Staphylococcus aureus and with Pasteurella multocida was over 100 µg/mL each time.

As for `CC(=O)C1=C(O)S/C(=C\c2ccc(C(F)(F)F)cc2)C1=O`, the MIC in the assay on Staphylococcus aureus and in the assay with Pasteurella multocida was 3.13 µg/mL (≈ 9.96 µM) throughout.

As for `CC(=O)C1=C(O)SC(Cc2cccc(C(F)(F)F)c2)C1=O` (stereo not given), the MIC in the assay with Staphylococcus aureus and in the assay with Pasteurella multocida was 3.13 µg/mL (≈ 9.9 µM) each time.

As to `CC1=C(O)S[C@](C)(/C=C(C)/C=C/C#N)C1=O`, the minimum inhibitory concentration (MIC) in the assay on Staphylococcus aureus and with Pasteurella multocida was over 100 µg/mL in each case.

`CC(=O)C1=C(O)S/C(=C\c2ccc(C#N)cc2)C1=O`: the figures for the MIC in the assay on Staphylococcus aureus and against Pasteurella multocida were 3.13 µg/mL (≈ 11.5 µM) and over 200 µg/mL, respectively.

With `CC1=C(O)S[C@](C)(/C=C(\C)CO)C1=O`, the MIC against Staphylococcus aureus and against Pasteurella multocida was over 100 µg/mL throughout.

As for `CC(=O)C1=C(O)SC(C)(C/C=C(\C)CC/C=C(\C)CCC=C(C)C)C1=O` (stereo not given), the minimal inhibitory concentration (MIC) with Staphylococcus aureus is over 200 µg/mL; in the assay with Pasteurella multocida, 1.56 µg/mL (≈ 4.14 µM).

Turning to `CC(=O)C1=C(O)SC(C/C=C/c2ccccc2)C1=O` (stereo not given), the MIC in the assay on Staphylococcus aureus and against Pasteurella multocida was 3.13 µg/mL (≈ 11.4 µM) throughout.

For `CC(=O)C1=C(O)S/C(=C\c2cccc(Oc3ccc(Cl)c(Cl)c3)c2)C1=O`, the MIC amounted to 1.56 µg/mL (≈ 3.83 µM) in the assay with Staphylococcus aureus and 0.2 µg/mL (≈ 0.491 µM) in the assay with Pasteurella multocida.

Take `CC(=O)C1=C(O)C(C)(C/C=C/c2ccccc2)SC1=O` (stereo not given): the MIC was 3.13 µg/mL (≈ 10.9 µM) in the assay with Staphylococcus aureus and over 200 µg/mL against Pasteurella multocida.

On to `CC(=O)C1=C(O)SC(CCC(C)CCCC(C)C)C1=O` (stereo not given), for which the results for the MIC against Staphylococcus aureus and in the assay on Pasteurella multocida were 0.78 µg/mL (≈ 2.61 µM) and 3.13 µg/mL (≈ 10.5 µM), respectively.
